# Data reported in article PMC11176637 (iScience, 2024).
# Tested on: VSVΔG-SW (S glycoprotein of the SARS-CoV-2 Wuhan variant)
# Experiment: microbe, parasite or virus in culture
# Assay type: cell-based
# Details: for IC50 against VSVΔG-SW: 0.3125–40 μM
Structure (SMILES),"IC50 (Severe acute respiratory syndrome coronavirus 2, read-out: IC50 against VSVΔG-SW) [nM]",IC50 against VSVΔG-SW
"Cc1cccc(NC(=O)CS(=O)(=O)c2nc(-c3ccccc3)cn2-c2ccc(Cl)cc2)c1C [PCM-0163855, 2-((1-(4-chlorophenyl)-4-phenyl-1H-imidazol-2-yl)sulfonyl)-N-(2,3-dimethylphenyl)acetamide]",600,
"COc1ccc2cc3c(N)nn(C(=O)Cc4c[nH]c5ccccc45)c3nc2c1 [PCM-0166392, 1-{6-amino-12-methoxy-2,4,5-triazatricyclo[7.4.0.0³,⁷]trideca-1,3(7),5,8,10,12-hexaen-4-yl}-2-(3-indolyl)-1-ethanone]",,relatively high activity
"CNC(=O)C(C#N)(Cc1cc(Cl)cc2c1OCOC2)Cc1cc(Cl)cc2c1OCOC2 [PCM-0068389, N-methyl3-(6-chloro-2,4-dihydro-1,3-benzodioxin-8-yl)-2-[(6-chloro-2,4-dihydro-1,3-benzodioxin-8-yl)methyl]-2-cyanopropionamide]",,lost all activity
"Nc1nc(Nc2ccccc2)sc1C(=O)c1ccccc1Cl [PCM-0179622, (4-amino-2-anilino-1,3-thiazol-5-yl)(o-chlorophenyl)methanone]",,relatively high activity
